Assay results published in patent publication US9827216B2, “Nutritional support to prevent and/or mitigate bone marrow toxicity from a cancerous tumor” (Nestec S.A., priority 2008, dated 2017).

Assays:
[1] = test system: red blood cell, white blood cell and immune cell populations; test: Haematological evaluation and flow cytometric analysis, test diets with chemotherapy (Example 2); assay type: in vivo, mice; details: for Global lymphocyte population: following chemotherapy, supplemented diets
Experimental: (§1) The animals were distributed into 7 different group diets. There was a control group that received the diet AIN 93 for adult rodents (maintenance). Test diets were administered in doses appropriate to the animal model: (a) Ctrl diet were supplemented with 1% (w/w) L-arginine, (b) 25% of the protein was replaced by glutamine, (c) 1% (w/w) L-citrulline, (d) 1 g/Kg body weight with active hexose correlated compound, (e) 20 mg/day of RNA nucleotides and (f) 25 mg/day of lactoferrin. […] Control animals without chemotherapeutic treatment were run in parallel for all tested diets. Body weight was assessed every two days. Blood samples were obtained at day 2, 4 and 10 after the chemo-treatment and at sacrifice (14 or 28 days). An autopsy was performed and tumor mass was assessed.

[2] = test system: NK cell; details: about 750 mg per day for two weeks, cited from earlier work
[3] = test system: tongue and/or esophageal tumors; test: Carcinogen induction of tongue and/or esophageal tumors; assay type: in vivo, CB6F1-Tg rasH2@Jcl mice; details: carcinogen-induced
Excerpt: Male CB6F1-Tg rasH2@Jcl mice (Tg) at 8 weeks of age are obtained and maintained in plastic cages. They are all allowed free access to a powdered basal diet of CRF (Charles River Formula)-1. A carcinogen, 4-nitroquinoline 1-oxide is used to induce tongue and/or esophageal tumors in this study.

[4] = test system: red blood cell, white blood cell and immune cell populations; test: Haematological evaluation and flow cytometric analysis of tumor-bearing mice after chemotherapy (Example 1); assay type: in vivo; details: after the chemotherapy
[5] = Body weight of tumor-bearing mice on test diets with chemotherapy (Example 2); assay type: in vivo; details: maximal dose (10 mg/kg)
Experimental: as §1

[6] = Body weight of tumor-bearing mice after chemotherapy (Example 1); details: maximal dose (10 mg/kg), of the initial body weight
Experimental: Inbred eight-week-old C57BL/6 (H-2b) mice were used in the experiments. Mice were inoculated subcutaneously (s.c.) on the left flank with 1×10^6 tumor cells, and tumor growth was monitored every 2 days by caliper measurement. 6 days after the tumor inoculation the animals were treated either with oxaliplatin or doxorubicin. Tumor growth was monitored every two days after the chemotherapeutic treatment and they were sacrificed after two weeks of tumor implantation. Some experiments were carried out until 28 days post-chemo to better assess tumor growth.
Body weight was assessed every two days until sacrifice.

[7] = test system: immune cells; test: Nutritional intervention on immune cells in tumor burdened animals with and without chemotherapy (FIG. 11); assay type: in vivo; details: during the second phase (tumor-induced toxicity)
Excerpt: FIG. 11 illustrates a graph of the effect of nutritional intervention on immune cells in tumor burdened animals with and without chemotherapy in accordance with an embodiment of the present disclosure.

[8] = test system: MCA-OVA 1×10^6 tumor cells; test: Tumor growth evaluation, test diets with or without chemotherapy (Example 2); assay type: in vivo, mice
Experimental: The animals were distributed into 7 different group diets. There was a control group that received the diet AIN 93 for adult rodents (maintenance). […] Control animals without chemotherapeutic treatment were run in parallel for all tested diets. Body weight was assessed every two days. Blood samples were obtained at day 2, 4 and 10 after the chemo-treatment and at sacrifice (14 or 28 days). An autopsy was performed and tumor mass was assessed.
Methylcholanthrene (MCA) induced sarcoma cell line expressing the exogenous antigen ovalbumin (OVA) was grown in DMEM or RPMI 1640 supplemented with 2 mM L-glutamine, 10 mM HEPES, 20 μM 2-mercaptoethanol, 150 U/mL streptomycin, 200 U/mL penicillin, and 10% heat-inactivated FBS. 1×10^6 tumor cells were injected in the flank of the mice 6 days prior to the chemotherapy.
Growth of tumors was monitored every 2 d by using calipers, and tumor volume was calculated by using the formula length×width×width×0.52 mm^3.

[9] = test system: γδ T cells; details: acid hydrolysed, diluted in media; peripheral blood mononuclear cells; (5%-75%); cited from earlier work

Compound: NC(=O)CC[C@H](N)C(=O)O [glutamine]
- Global lymphocyte population [1]: less depressed

Compound: vitamin E
- NKG2D expression ([2]; all patients studied): small but consistent induction
- NK cell cytolytic activity ([2]; cancer patients): significantly improved

Compound: O=[N+]([O-])c1cc[n+]([O-])c2ccccc12 [4-nitroquinoline 1-oxide]
- mice developing tumors in the esophagus [3]: 60%
- mice developing tumors on the tongue [3]: 100%

Compound: NC(=O)NCCC[C@H](N)C(=O)O [citrulline, L-citrulline]
- Global lymphocyte population [1]: less depressed

Compound: O=C1[O][Pt]2([NH][C@@H]3CCCC[C@H]3[NH]2)[O]C1=O [oxaliplatin]
- white blood cell counts [4]: leukocyte counts that were higher that the baseline counts
- Maximal weight loss [5]: around 15%
- Maximal weight loss [6]: around 15%

Compound: N=C(N)NCCC[C@H](N)C(=O)O [arginine, L-arginine]
- loss of CD3+ cells ([1]; around 10 days post-chemotherapy, supplemented diet): partially modulated
- fall of erythrocytes after chemotherapy ([1]; diet supplemented 1% (w/w), between days 6 and 10 post-chemo, vs control diet and other treatments (FIG. 3)): prevented the marked fall of erythrocytes
- immune cell population / concentration [7]: increase immune cell concentration
- tumor size ([8]; combination with the chemotherapy treatment vs chemotherapy alone (FIG. 4)): further reduced the tumor size
- progression of the implanted tumor ([8]; supplemented diet compared to other groups): delayed progression

Compound: CCNC(=O)CC[C@H](N)C(=O)O [L-theanine]
- expansion of γδ T cells [9]: 15 fold
